Test results published in patent publication US20220187282A1, “CARDIOMYOCYTE PROLIFERATION” (The Council of the Queensland Institute of Medical Research, priority 2019, published 2022).
Where two headings read alike, the source gives them in different places.

What was measured:
Format in all cases: biochemical
[1] = biological target: kinases (Homo sapiens, UniProt O00238); conditions: BMPR1B (ALK6) FRET-Lantha SP; Test Conc(μM) 1
[2] = biological target: kinases (Homo sapiens, UniProt O60674)
[3] = biological target: kinases (Homo sapiens, UniProt O76039); conditions: CDKL5 FRET-Z-Lyte SP; Test Conc(μM):ATP Conc(μM) 1:500
[4] = biological target: kinases (Homo sapiens, UniProt P06213); conditions: INSR *Mn* FRET-Z-Lyte SP; Test Conc(μM):ATP Conc(μM) 1:25
[5] = biological target: kinases (Homo sapiens, UniProt P06493)
Chain of kinases (Homo sapiens, UniProt P06493) (P06493 whole entry): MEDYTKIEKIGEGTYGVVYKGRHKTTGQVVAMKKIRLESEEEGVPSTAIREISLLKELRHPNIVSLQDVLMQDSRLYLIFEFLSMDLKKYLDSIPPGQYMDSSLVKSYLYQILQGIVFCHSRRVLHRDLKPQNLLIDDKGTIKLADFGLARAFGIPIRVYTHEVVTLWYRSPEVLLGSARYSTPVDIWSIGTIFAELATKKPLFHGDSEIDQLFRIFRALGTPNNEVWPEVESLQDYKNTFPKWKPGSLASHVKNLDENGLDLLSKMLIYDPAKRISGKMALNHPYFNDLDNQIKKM

[6] = biological target: kinases (Homo sapiens, UniProt P08069); conditions: IGF1R FRET-Z-Lyte SP; Test Conc(μM):ATP Conc(μM) 1:150
[7] = biological target: kinases (Homo sapiens, UniProt P08631); conditions: HCK FRET-Z-Lyte SP; Test Conc(μM):ATP Conc(μM) 1:25
[8] = biological target: kinases (Homo sapiens, UniProt P22694); conditions: PRKACB FRET-Lantha SP; Test Conc(μM) 1
[9] = biological target: kinases (Homo sapiens, UniProt P35916); conditions: FLT4 (VEGFR3) *Mn* Z-Lyte SP; Test Conc(μM):ATP Conc(μM) 1:5
[10] = biological target: kinases (Homo sapiens, UniProt P48729); conditions: CSNK1A1 FRET-Z-Lyte SP; Test Conc(μM):ATP Conc(μM) 1:5
[11] = biological target: kinases (Homo sapiens, UniProt P49840); conditions: GSK3A FRET-Z-Lyte SP; Test Conc(μM):ATP Conc(μM) 1:10
Chain of kinases (Homo sapiens, UniProt P49840) (P49840 whole entry): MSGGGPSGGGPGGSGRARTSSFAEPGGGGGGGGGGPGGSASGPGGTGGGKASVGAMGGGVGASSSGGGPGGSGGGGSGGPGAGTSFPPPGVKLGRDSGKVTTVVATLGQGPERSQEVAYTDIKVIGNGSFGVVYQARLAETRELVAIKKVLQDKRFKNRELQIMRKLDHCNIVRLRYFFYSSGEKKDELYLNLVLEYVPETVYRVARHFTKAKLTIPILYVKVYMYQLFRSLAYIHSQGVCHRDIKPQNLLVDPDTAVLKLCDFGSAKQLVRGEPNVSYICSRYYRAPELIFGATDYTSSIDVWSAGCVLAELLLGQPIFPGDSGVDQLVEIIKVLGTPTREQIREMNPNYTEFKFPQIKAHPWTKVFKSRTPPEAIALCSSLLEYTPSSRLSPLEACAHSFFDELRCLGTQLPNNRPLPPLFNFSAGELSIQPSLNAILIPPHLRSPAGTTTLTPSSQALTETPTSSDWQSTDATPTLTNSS

[12] = biological target: T1, kinases (Homo sapiens, UniProt P52564)
T1 sequence (P52564 1-334): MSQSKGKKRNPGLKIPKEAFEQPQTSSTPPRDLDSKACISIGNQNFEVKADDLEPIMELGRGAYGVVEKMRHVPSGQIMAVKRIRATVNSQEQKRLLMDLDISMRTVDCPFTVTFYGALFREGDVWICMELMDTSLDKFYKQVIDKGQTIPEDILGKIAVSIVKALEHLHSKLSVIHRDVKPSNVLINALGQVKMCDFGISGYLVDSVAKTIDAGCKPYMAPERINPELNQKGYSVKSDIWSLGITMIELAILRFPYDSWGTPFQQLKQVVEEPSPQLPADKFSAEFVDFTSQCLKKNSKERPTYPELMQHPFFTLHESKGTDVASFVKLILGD

[13] = biological target: kinases (Homo sapiens, UniProt P78362); conditions: SRPK2 FRET-Z-Lyte SP; Test Conc(μM):ATP Conc(μM) 1:25
[14] = biological target: kinases (Homo sapiens, UniProt Q13131)
Chain of kinases (Homo sapiens, UniProt Q13131) (Q13131 whole entry): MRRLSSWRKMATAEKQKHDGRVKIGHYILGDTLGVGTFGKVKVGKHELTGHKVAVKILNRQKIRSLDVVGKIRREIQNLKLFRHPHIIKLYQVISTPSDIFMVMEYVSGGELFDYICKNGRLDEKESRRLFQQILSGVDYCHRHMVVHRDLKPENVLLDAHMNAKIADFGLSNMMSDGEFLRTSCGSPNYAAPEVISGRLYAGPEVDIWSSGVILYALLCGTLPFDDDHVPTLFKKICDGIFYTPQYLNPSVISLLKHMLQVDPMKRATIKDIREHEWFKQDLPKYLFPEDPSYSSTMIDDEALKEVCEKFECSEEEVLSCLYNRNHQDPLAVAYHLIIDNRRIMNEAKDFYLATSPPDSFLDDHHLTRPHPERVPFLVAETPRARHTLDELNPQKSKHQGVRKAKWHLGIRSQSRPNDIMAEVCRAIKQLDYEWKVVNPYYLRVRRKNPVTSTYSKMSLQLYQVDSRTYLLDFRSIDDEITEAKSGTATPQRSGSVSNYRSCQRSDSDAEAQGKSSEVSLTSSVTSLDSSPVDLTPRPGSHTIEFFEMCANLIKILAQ

[15] = biological target: kinases (Homo sapiens, UniProt Q13555); conditions: CAMK2G FRET-Lantha SP; Test Conc(μM) 1
[16] = biological target: kinases (Homo sapiens, UniProt Q16513); conditions: PKN2 (PRK2) FRET-lantha SP; Test Conc(μM) 1
[17] = biological target: kinases (Homo sapiens, UniProt Q6DT37); conditions: CDC42 BPG FRET-Z-Lyte SP; Test Conc(μM):ATP Conc(μM) 1:5
[18] = biological target: kinases (Homo sapiens, UniProt Q76MJ5); conditions: ERN2 FRET-Lantha SP; Test Conc(μM) 1
[19] = biological target: kinases (Homo sapiens, UniProt Q8TD19); conditions: NEK9 *Mn* FRET-Z-Lyte SP; Test Conc(μM):ATP Conc(μM) 1:100
[20] = biological target: kinases (Homo sapiens, UniProt Q8WXR4); conditions: MYO3B FRET-Lantha SP; Test Conc(μM) 1
[21] = biological target: kinases (Homo sapiens, UniProt Q96GX5); conditions: MASTL FRET-Lantha SP; Test Conc(μM) 1
Chain of kinases (Homo sapiens, UniProt Q96GX5) (Q96GX5 whole entry): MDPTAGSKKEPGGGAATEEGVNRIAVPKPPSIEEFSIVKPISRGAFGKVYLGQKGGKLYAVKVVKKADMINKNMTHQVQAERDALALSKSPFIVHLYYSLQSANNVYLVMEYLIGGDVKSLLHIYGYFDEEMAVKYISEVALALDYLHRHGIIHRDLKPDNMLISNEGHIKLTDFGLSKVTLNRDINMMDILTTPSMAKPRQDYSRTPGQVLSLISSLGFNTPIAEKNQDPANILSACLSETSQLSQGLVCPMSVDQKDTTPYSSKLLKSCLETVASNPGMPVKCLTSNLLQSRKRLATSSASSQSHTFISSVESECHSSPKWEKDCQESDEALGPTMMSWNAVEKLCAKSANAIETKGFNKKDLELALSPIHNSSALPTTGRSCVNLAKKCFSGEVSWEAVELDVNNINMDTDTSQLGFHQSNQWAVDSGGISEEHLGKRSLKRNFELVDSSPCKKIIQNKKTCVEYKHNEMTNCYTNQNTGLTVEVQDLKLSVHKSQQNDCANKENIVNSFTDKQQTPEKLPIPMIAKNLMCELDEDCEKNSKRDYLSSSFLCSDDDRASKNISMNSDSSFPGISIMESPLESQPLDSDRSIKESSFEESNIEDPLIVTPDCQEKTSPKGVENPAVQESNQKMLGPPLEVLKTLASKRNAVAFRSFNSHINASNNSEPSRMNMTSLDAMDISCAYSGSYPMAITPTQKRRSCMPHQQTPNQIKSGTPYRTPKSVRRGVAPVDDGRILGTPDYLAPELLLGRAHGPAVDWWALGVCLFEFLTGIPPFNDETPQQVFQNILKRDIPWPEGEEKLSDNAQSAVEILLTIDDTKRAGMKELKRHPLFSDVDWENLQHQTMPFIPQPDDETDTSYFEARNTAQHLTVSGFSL

[22] = biological target: kinases (Homo sapiens, UniProt Q96NX5); conditions: CAMK1G FRET-Z-Lyte SP
Chain of kinases (Homo sapiens, UniProt Q96NX5) (Q96NX5 whole entry): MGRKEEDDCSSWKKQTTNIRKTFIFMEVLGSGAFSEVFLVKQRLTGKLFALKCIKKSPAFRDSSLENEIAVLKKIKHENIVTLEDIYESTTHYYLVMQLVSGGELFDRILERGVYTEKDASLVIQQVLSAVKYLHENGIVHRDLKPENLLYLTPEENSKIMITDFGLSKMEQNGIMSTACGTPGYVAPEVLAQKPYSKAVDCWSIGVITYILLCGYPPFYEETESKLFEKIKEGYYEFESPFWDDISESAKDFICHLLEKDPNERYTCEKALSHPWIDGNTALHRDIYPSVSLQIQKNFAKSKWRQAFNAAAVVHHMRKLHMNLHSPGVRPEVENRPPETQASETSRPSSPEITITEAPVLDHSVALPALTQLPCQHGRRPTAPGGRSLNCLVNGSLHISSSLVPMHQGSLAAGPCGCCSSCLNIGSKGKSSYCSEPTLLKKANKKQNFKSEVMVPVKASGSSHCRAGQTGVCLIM

[23] = biological target: kinases (Homo sapiens, UniProt Q9Y2U5); conditions: MAP3K2 (MEKK2) FRET-Lantha SP; Test Conc(μM) 1
[24] = biological target: kinases (Homo sapiens, UniProt Q9Y4K4); conditions: MAP4K5 (KHS1) FRET-Z-Lyte SP; Test Conc(μM):ATP Conc(μM) 1:50
[25] = biological target: kinases (Homo sapiens, UniProt Q9Y616); conditions: IRAK3 FRET-Lantha SP; Test Conc(μM) 1
Chain of kinases (Homo sapiens, UniProt Q9Y616) (Q9Y616 whole entry): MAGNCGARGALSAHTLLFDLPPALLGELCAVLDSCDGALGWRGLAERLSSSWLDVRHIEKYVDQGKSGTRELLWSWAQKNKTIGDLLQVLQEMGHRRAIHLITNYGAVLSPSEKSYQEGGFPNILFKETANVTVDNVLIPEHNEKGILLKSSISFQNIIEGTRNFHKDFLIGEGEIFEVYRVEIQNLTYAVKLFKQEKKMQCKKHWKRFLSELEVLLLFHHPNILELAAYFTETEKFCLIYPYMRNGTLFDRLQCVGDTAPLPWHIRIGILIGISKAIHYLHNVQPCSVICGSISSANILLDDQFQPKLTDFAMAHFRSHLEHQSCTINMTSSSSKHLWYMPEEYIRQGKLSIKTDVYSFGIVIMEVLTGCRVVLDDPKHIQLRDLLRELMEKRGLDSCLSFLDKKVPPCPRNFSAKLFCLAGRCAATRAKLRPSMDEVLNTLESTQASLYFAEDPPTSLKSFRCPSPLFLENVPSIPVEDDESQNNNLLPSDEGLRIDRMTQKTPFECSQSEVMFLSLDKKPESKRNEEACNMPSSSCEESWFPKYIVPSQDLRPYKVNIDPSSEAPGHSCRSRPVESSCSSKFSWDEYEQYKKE

[26] = JAK2 FRET-Z-Lyte SP, Test Conc(μM):ATP Conc(μM) 1:25
[27] = CDK1/cyclin A2 FRET-Lantha SP, Test Conc(μM) 1
[28] = CDK1/cyclin B FRET-Z-Lyte SP, Test Conc(μM):ATP Conc(μM) 1:25
[29] = MAP2K6 (MKK6) FRET-Lantha SP, Test Conc(μM) 1
[30] = MAP2K6 (MKK6)Cascade Z-Lyte SP, Test Conc(μM):ATP Conc(μM) 1:100
[31] = AMPK (A1/B1/G2) FRET-Lantha SP, Test Conc(μM) 1
[32] = AMPK (A1/B1/G3) FRET-Lantha SP, Test Conc(μM) 1
[33] = AMPK (A1/B2/G1) FRET-Lantha SP, Test Conc(μM) 1
[34] = AMPK A1/B1/G1 FRET-Z-lyte SP, Test Conc(μM):ATP Conc(μM) 1:50
[35] = AMPK A1/B2/G2 FRET-Z-Lyte SP, Test Conc(μM):ATP Conc(μM) 1:10
[36] = AMPK A1/B2/G3 FRET-Z-Lyte SP, Test Conc(μM):ATP Conc(μM) 1:10

Chain of kinases (Homo sapiens, UniProt O60674) (O60674 whole entry): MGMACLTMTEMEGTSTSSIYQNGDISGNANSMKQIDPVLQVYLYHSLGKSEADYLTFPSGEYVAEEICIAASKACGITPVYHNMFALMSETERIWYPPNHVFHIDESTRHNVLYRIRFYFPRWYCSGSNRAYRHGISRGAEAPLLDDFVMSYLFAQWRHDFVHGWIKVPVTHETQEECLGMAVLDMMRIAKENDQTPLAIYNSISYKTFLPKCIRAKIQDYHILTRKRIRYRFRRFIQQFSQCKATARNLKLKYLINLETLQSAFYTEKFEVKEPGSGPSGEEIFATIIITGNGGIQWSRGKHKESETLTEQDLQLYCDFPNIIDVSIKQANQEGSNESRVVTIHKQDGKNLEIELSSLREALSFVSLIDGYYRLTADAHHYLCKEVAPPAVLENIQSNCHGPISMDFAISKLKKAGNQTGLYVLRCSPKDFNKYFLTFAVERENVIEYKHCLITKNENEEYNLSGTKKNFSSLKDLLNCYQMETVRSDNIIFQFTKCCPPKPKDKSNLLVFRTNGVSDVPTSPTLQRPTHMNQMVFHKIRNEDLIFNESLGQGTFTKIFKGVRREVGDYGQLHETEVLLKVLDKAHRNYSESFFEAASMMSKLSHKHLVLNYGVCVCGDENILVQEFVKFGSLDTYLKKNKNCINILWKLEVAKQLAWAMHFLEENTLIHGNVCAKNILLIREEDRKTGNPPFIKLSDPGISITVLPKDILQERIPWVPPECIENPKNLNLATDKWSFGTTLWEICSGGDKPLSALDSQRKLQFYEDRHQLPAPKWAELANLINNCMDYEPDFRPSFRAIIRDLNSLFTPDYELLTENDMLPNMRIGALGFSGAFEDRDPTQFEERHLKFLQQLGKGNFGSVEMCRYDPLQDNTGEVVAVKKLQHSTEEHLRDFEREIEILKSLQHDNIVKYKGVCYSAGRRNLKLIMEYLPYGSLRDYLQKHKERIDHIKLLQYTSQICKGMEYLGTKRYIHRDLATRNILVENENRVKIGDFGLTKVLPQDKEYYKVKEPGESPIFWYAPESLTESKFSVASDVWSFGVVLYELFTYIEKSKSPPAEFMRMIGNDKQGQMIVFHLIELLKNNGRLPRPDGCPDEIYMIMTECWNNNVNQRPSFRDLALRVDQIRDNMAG
Chain of kinases (Homo sapiens, UniProt O00238) (O00238 14-502): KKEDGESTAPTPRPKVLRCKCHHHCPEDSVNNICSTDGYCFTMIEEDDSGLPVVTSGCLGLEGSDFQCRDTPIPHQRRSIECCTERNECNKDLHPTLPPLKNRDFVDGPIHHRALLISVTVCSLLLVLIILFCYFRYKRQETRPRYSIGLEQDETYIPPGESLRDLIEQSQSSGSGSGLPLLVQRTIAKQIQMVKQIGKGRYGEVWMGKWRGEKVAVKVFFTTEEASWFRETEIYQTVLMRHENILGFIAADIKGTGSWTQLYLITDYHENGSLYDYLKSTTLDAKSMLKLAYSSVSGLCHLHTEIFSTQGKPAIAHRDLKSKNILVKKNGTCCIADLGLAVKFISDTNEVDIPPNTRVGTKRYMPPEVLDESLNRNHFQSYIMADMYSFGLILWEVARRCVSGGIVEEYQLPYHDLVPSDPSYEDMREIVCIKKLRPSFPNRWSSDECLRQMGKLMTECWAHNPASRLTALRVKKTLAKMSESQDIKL

Structure (SMILES) | Mean Inhib (%) [1] | Mean Inhib (%) [2, 26] | Mean Inhib (%) [3] | Mean Inhib (%) [4] | Mean Inhib (%) [5, 27] | Mean Inhib (%) [5, 28] | Mean Inhib (%) [6] | Mean Inhib (%) [7] | Mean Inhib (%) [8] | Mean Inhib (%) [9] | Mean Inhib (%) [10] | Mean Inhib (%) [11] | Mean Inhib (%) [12, 29] | Mean Inhib (%) [12, 30] | Mean Inhib (%) [13] | Mean Inhib (%) [14, 31] | Mean Inhib (%) [14, 32] | Mean Inhib (%) [14, 33] | Mean Inhib (%) [14, 34] | Mean Inhib (%) [14, 35] | further results
Cc1ccc(NC(=O)c2ccnc(N3CCOCC3)c2)cc1Nc1ccnc(N2CC(C)OC(C)C2)n1 (stereo not drawn) [compound 3] | 11.9% | −7.7% | 13.9% | 2.1% | −1.0% | 3.8% | 11.6% | 6.4% | 2.3% | 2.8% | 4.2% | 9.4% | −4.9% | 21.3% | −1.9% | 5.6% | −10.3% | 0.0% | 0.3% | 12.2% | Mean Inhib (%) ([2]; JAK2 JH1 JH2 FRET-Z-Lyte SP, ATP Conc(μM):Test Conc(μM) 1:25): −0.1%; Mean Inhib (%) [14, 36]: 20.8%; Mean Inhib (%) [15]: −1.7%; Mean Inhib (%) [16]: −2.6%; Mean Inhib (%) [17]: 2.2%; Mean Inhib (%) [18]: −3.5%; Mean Inhib (%) [19]: 1.8%; Mean Inhib (%) [20]: 3.9%; Mean Inhib (%) [21]: 2.3%; Mean Inhib (%) ([22]; Test Conc(μM):ATP Conc(μM) 1:300): 5.8%; Mean Inhib (%) [23]: 3.5%; Mean Inhib (%) [24]: −7.8%; Mean Inhib (%) [25]: 14.4%
Cc1cc(Oc2ccnc(Nc3ccc(S(N)(=O)=O)cc3)c2)c(-c2ccccn2)nc1C [compound 65] | 107.0% | 4.7% | 9.8% | 1.5% | 25.4% | 3.2% | 6.5% | 30.9% | 10.9% | 2.0% | 4.1% | 3.2% | 2.3% | −5.7% | 1.9% | 1.3% | −1.2% | 2.3% | −0.6% | −0.5% | Mean Inhib (%) ([2]; JAK2 JH1 JH2 FRET-Z-Lyte SP, ATP Conc(μM):Test Conc(μM) 1:50): −3.9%; Mean Inhib (%) [14, 36]: −2.4%; Mean Inhib (%) [15]: 1.3%; Mean Inhib (%) [16]: 5.1%; Mean Inhib (%) [17]: −5.0%; Mean Inhib (%) [18]: 7.1%; Mean Inhib (%) [19]: −4.1%; Mean Inhib (%) [20]: 4.1%; Mean Inhib (%) [21]: 13.5%; Mean Inhib (%) ([22]; Test Conc(μM):ATP Conc(μM) 0.25): −3.7%; Mean Inhib (%) [23]: 5.7%; Mean Inhib (%) [24]: 38.0%; Mean Inhib (%) [25]: 5.4%
